Laboratory results taken from patent US9791443B2, “Method for differentially quantifying naturally processed HLA-restricted peptides for cancer, autoimmune and infectious diseases immunotherapy development” (IMMATICS BIOTECHNOLOGIES GMBH, priority 2010, dated 2017).

Test system: CD8+ T cells
Test: In vitro immunogenicity: priming of CD8+ T cells with pMHC/anti-CD28 coated beads (aAPC), A*2402 multimer staining
Assay type: cell-based, human
Conditions: HLA-A*24 healthy donors, three stimulation cycles; for Positive donors/donors tested [%]: positive among evaluable donors, at least two donors evaluable per peptide; for Positive wells/wells tested [%]: positive among evaluable wells, at least 24 wells evaluable per peptide
Description: To get information regarding the immunogenicity of the TUMAPs of the present invention, we performed investigations using a well established in vitro stimulation platform already described by (Walter, S, Herrgen, L, Schoor, O, Jung, G, Wernet, D, Buhring, H J, Rammensee, H G, and Stevanovic, S; 2003, Cutting edge: predetermined avidity of human CD8 T cells expanded on calibrated MHC/anti-CD28-coated microspheres, J. Immunol., 171, 4974-4978).
In order to perform in vitro stimulations by artificial antigen presenting cells (aAPC) loaded with peptide-MHC complex (pMHC) and anti-CD28 antibody, we first isolated CD8 T cells from fresh HLA-A*24 leukapheresis products of healthy donors obtained from the Blood Bank Tuebingen.
CD8 T cells were either directly enriched from the leukapheresis product or PBMCs (peripheral blood mononuclear cells) were isolated first by using standard gradient separation medium (PAA, Cölbe, Germany). Isolated CD8 lymphocytes or PBMCs were incubated until use in T-cell medium (TCM) consisting of RPMI-Glutamax (Invitrogen, Karlsruhe, Germany) supplemented with 10% heat inactivated human AB serum (PAN-Biotech, Aidenbach, Germany), 100 U/ml Penicillin/100 μg/ml Streptomycin (Cambrex, Cologne, Germany), 1 mM sodium pyruvate (CC Pro, Oberdorla, Germany), 20 μg/ml Gentamycin (Cambrex). 2.5 ng/ml IL-7 (PromoCell, Heidelberg, Germany) and 10 U/ml IL-2 (Novartis Pharma, Nürnberg, Germany) were also added to the TCM at this step. Isolation of CD8+ lymphocytes was performed by positive selection using CD8 MicroBeads (Miltenyi Biotec, Bergisch-Gladbach, Germany).
Generation of pMHC/anti-CD28 coated beads, T-cell stimulations and readout was performed as described before (Walter et al. 4974-78) with minor modifications. Briefly, biotinylated peptide-loaded recombinant HLA-A*2402 molecules lacking the transmembrane domain and biotinylated at the carboxy terminus of the heavy chain were produced. The purified costimulatory mouse IgG2a anti human CD28 Ab 9.3 (Jung, Ledbetter, and Muller-Eberhard 4611-15) was chemically biotinylated using Sulfo-N-hydroxysuccinimidobiotin as recommended by the manufacturer (Perbio, Bonn, Germany).
800.000 beads/200 μl were coated in 96-well plates in the presence of 600 ng biotin anti-CD28 plus 200 ng relevant biotin-pMHC (high density beads). Stimulations were initiated in 96-well plates by co-incubating 1×10^6 CD8+ T cells with 2×10^5 washed coated beads in 200 μl TCM supplemented with 5 ng/ml IL-12 (PromoCell) for 3-4 days at 37° C. Half of the medium was then exchanged by fresh TCM supplemented with 80 U/ml IL-2 and incubating was continued for 3-4 days at 37° C. This stimulation cycle was performed for a total of three times. Finally, multimeric analyses were performed by staining the cells with Live/dead-Aqua dye (Invitrogen, Karlsruhe, Germany), CD8-FITC antibody clone SK1 (BD, Heidelberg, Germany) and PE- or APC-coupled A*2402 MHC multimers. For analysis, a BD LSRII SORP cytometer equipped with appropriate lasers and filters was used. Peptide specific cells were calculated as percentage of total CD8+ cells. Evaluation of multimeric analysis was done using the FlowJo software (Tree Star, Oregon, USA). In vitro priming of specific multimer+ CD8+ lymphocytes was detected by appropriate gating and by comparing to negative control stimulations.

Sequence: RYLWATVTI (listed as Homo sapiens) [ASPM-001]
- Positive donors/donors tested [%]: 17%
- Positive wells/wells tested [%]: 3%

Sequence: SYNPLWLRI (listed as Homo sapiens) [ASPM-002]
- Positive donors/donors tested [%]: 63%
- Positive wells/wells tested [%]: 31%

Sequence: VYIEKNDKL (listed as Homo sapiens) [ERBB3-001]
- Positive donors/donors tested [%]: 83%
- Positive wells/wells tested [%]: 15%

Sequence: TYGNLLDYL (listed as Homo sapiens) [ABL1-001]
- Positive donors/donors tested [%]: 50%
- Positive wells/wells tested [%]: 13%

Sequence: FYISPVNKL (listed as Homo sapiens) [AVL9-001]
- Positive donors/donors tested [%]: 100%
- Positive wells/wells tested [%]: 50%

Sequence: KYNDTFWKEF (listed as Homo sapiens) [HSP90B1-001]
- Positive donors/donors tested [%]: 50%
- Positive wells/wells tested [%]: 4%

Sequence: AYAIIKEEL (listed as Homo sapiens) [ATAD2-001]
- Positive donors/donors tested [%]: 50%
- Positive wells/wells tested [%]: 4%

Sequence: IYNGKLFDLL (listed as Homo sapiens) [KIF2C-001]
- Positive donors/donors tested [%]: 13%
- Positive wells/wells tested [%]: 2%

Sequence: VYGIRLEHF (listed as Homo sapiens) [NUF2-001]
- Positive donors/donors tested [%]: 100%
- Positive wells/wells tested [%]: 25%

Sequence: NYLPFIMEL (listed as Homo sapiens) [UCHL5-001]
- Positive donors/donors tested [%]: 75%
- Positive wells/wells tested [%]: 14%

Sequence: VWSDVTPLTF [PROM1-001]
- Positive donors/donors tested [%]: 83%
- Positive wells/wells tested [%]: 26%

Sequence: QYASRFVQL (listed as Homo sapiens) [PLK4-001]
- Positive donors/donors tested [%]: 60%
- Positive wells/wells tested [%]: 5%

Sequence: VFIFKGNQF (listed as Homo sapiens) [MMP3-001]
- Positive donors/donors tested [%]: 13%
- Positive wells/wells tested [%]: 1%

Sequence: SYIDVLPEF (listed as Homo sapiens) [MET-006]
- Positive donors/donors tested [%]: 63%
- Positive wells/wells tested [%]: 22%

Sequence: AYLVYTDRL (listed as Homo sapiens) [PPAP2C-001]
- Positive donors/donors tested [%]: 100%
- Positive wells/wells tested [%]: 54%

Sequence: YYNAAGFNKL (listed as Homo sapiens) [UQCRB-001]
- Positive donors/donors tested [%]: 100%
- Positive wells/wells tested [%]: 38%

Sequence: VFDTAIAHLF (listed as Homo sapiens) [SIAH2-001]
- Positive donors/donors tested [%]: 50%
- Positive wells/wells tested [%]: 4%

Sequence: VYKVVGNLL (listed as Homo sapiens) [IQGAP3-001]
- Positive donors/donors tested [%]: 100%
- Positive wells/wells tested [%]: 24%

Sequence: RFLSGIINF (listed as Homo sapiens) [NUF2-002]
- Positive donors/donors tested [%]: 50%
- Positive wells/wells tested [%]: 4%

Sequence: NYEETFPHI (listed as Homo sapiens) [MUC6-001]
- Positive donors/donors tested [%]: 50%
- Positive wells/wells tested [%]: 21%

Sequence: NYLLYVSNF [MST1R-001] (listed as Homo sapiens)
- Positive donors/donors tested [%]: 50%
- Positive wells/wells tested [%]: 14%

Sequence: LYQILQGIVF (listed as Homo sapiens) [CDC2-001]
- Positive donors/donors tested [%]: 88%
- Positive wells/wells tested [%]: 28%

Sequence: NYLLYVSNF [MMP11-001]
- Positive donors/donors tested [%]: 33%
- Positive wells/wells tested [%]: 11%

Sequence: VYTTSYQQI (listed as Homo sapiens) [NFYB-001]
- Positive donors/donors tested [%]: 50%
- Positive wells/wells tested [%]: 7%

Sequence: HYKPTPLYF (listed as Homo sapiens) [SMC4-001]
- Positive donors/donors tested [%]: 75%
- Positive wells/wells tested [%]: 9%
